US20070259893A1, “Pyrazolopyrimidines” (BAYER CROPSCIENCE AKTIENGESELLSCHAFT, priority 2003, published 2007)

Assays:
Botrytis cinerea = experiment: Botrytis test (bean)/protective; type: in vivo; conditions: bean plants, protective spray, application rate 500 g/ha, evaluated 2 days after inoculation
Protocol: Botrytis Test (Bean)/Protective
Solvents: 24.5 parts by weight of acetone
• 24.5 parts by weight of dimethylacetamide Emulsifier: 1.0 part by weight of alkylaryl polyglycol ether
To produce a suitable preparation of active compound, 1 part by weight of active compound is mixed with the stated amount of solvents and emulsifier, and the concentrate is diluted with water to the desired concentration.
To test for protective activity, young plants are sprayed with the preparation of active compound at the stated application rate. After the spray coating has dried on, 2 small pieces of agar colonized by Botrytis cinerea are placed onto each leaf. The inoculated plants are placed in a dark chamber at about 20° C. and 100% relative atmospheric humidity.
The size of the infected areas on the leaves is evaluated 2 days after the inoculation. 0% means an efficacy which corresponds to that of the control, whereas an efficacy of 100% means that no infection is observed.

logP by HPLC = type: physicochemical

SMILES	efficacy (Botrytis cinerea)	chromatographic logP (logP by HPLC)
CC1CCN(c2c(-c3ccc(F)cc3Cl)c(Cl)nc3c(C(=O)C(F)(F)F)cnn23)CC1 [Example 1, 3-trifluoroacetyl-5-chloro-6-(2-chloro-4-fluorophenyl)-7-(4-methylpiperidino)-pyrazolo[1,5-a]pyrimidine]	more than 90%	5.44
CC(C)C(C)Nc1c(-c2ccc(F)cc2Cl)c(Cl)nc2c(C(=O)C(F)(F)F)cnn12 (stereo not shown) [Example 2]	–	5.08
CC(Nc1c(-c2ccc(F)cc2Cl)c(Cl)nc2c(C#N)cnn12)C(C)(C)C (stereo not shown) [Example 4]	–	4.92
